Laboratory results as given in patent US9999609B2, “Methods for treating or preventing fatigue” (SK Biopharmaceuticals Co., Ltd., priority 2009, dated 2018).

Tested on: male adult Sprague Dawley rats
Test: Sleep-wake organization (EEG/EOG/EMG) in rats after acute i.p. administration
Type: in vivo
Conditions: rats, mean ± s.e.m of 8 rats; for Duration Active wake / Duration Deep sleep / Duration Intemediate stage / Duration Light sleep / Duration Passive wake / Duration REM sleep: 16 h recording

COC(=O)[C@H]1[C@@H](OC(=O)c2ccccc2)C[C@@H]2CC[C@H]1N2C [Cocaine, cocaine]
Duration Active wake (1 mg/kg i.p.): 331.5 ± 41.5 min
Duration Deep sleep (1 mg/kg i.p.): 162.9 ± 26.3 min
Duration Intemediate stage (1 mg/kg i.p.): 6.7 ± 1.0 min
Duration Light sleep (1 mg/kg i.p.): 293.2 ± 26.3 min
Duration Passive wake (1 mg/kg i.p.): 69.8 ± 11.0 min
Duration REM sleep (1 mg/kg i.p.): 84.2 ± 8.1 min
Latency ISWS (1 mg/kg i.p.): 69.9 ± 51.2 min
Latency REM sleep (1 mg/kg i.p.): 74.3 ± 12.1 min
Latency dSWS (1 mg/kg i.p.): 79.3 ± 26.7 min
Shifts: Shift from ISWS to AW (1 mg/kg i.p.): 184.1 ± 48.1 number
Shifts: Shift from ISWS to PW (1 mg/kg i.p.): 128.6 ± 45.2 number
Shifts: Shift from REMS to AW (1 mg/kg i.p.): 74.5 ± 21.5 number
Shifts: Shift from REMS to PW (1 mg/kg i.p.): 17.0 ± 8.8 number
Shifts: Shift from dSWS to AW (1 mg/kg i.p.): 10.1 ± 5.6 number
Shifts: Shift from dSWS to PW (1 mg/kg i.p.): 66.6 ± 48.2 number
Duration Active wake (3 mg/kg i.p.): 324.8 ± 18.3 min
Duration Deep sleep (3 mg/kg i.p.): 172.6 ± 34.3 min
Duration Intemediate stage (3 mg/kg i.p.): 5.7 ± 0.6 min
Duration Light sleep (3 mg/kg i.p.): 303.2 ± 42.5 min
Duration Passive wake (3 mg/kg i.p.): 66.7 ± 8.9 min
Duration REM sleep (3 mg/kg i.p.): 76.7 ± 6.3 min
Latency ISWS (3 mg/kg i.p.): 41.5 ± 9.2 min
Latency REM sleep (3 mg/kg i.p.): 112.0 ± 12.2 min
Latency dSWS (3 mg/kg i.p.): 68.6 ± 7.6 min
Shifts: Shift from ISWS to AW (3 mg/kg i.p.): 218.5 ± 50.6 number
Shifts: Shift from ISWS to PW (3 mg/kg i.p.): 142.2 ± 48.5 number
Shifts: Shift from REMS to AW (3 mg/kg i.p.): 56.0 ± 16.4 number
Shifts: Shift from REMS to PW (3 mg/kg i.p.): 10.7 ± 6.9 number
Shifts: Shift from dSWS to AW (3 mg/kg i.p.): 10.2 ± 6.7 number
Shifts: Shift from dSWS to PW (3 mg/kg i.p.): 64.5 ± 42.6 number
Duration Active wake (10 mg/kg i.p.): 347.3 ± 16.5 min
Duration Deep sleep (10 mg/kg i.p.): 171.9 ± 23.8 min
Duration Intemediate stage (10 mg/kg i.p.): 6.3 ± 1.1 min
Duration Light sleep (10 mg/kg i.p.): 294.6 ± 24.4 min
Duration Passive wake (10 mg/kg i.p.): 55.0 ± 10.4 min
Duration REM sleep (10 mg/kg i.p.): 74.7 ± 7.5 min
Latency ISWS (10 mg/kg i.p.): 101.8 ± 6.9 min
Latency REM sleep (10 mg/kg i.p.): 192.1 ± 18.5 min
Latency dSWS (10 mg/kg i.p.): 138.8 ± 8.7 min
Shifts: Shift from ISWS to AW (10 mg/kg i.p.): 201.2 ± 53.6 number
Shifts: Shift from ISWS to PW (10 mg/kg i.p.): 132.6 ± 48.2 number
Shifts: Shift from REMS to AW (10 mg/kg i.p.): 52.3 ± 16.5 number
Shifts: Shift from REMS to PW (10 mg/kg i.p.): 9.2 ± 5.8 number
Shifts: Shift from dSWS to AW (10 mg/kg i.p.): 10.4 ± 6.2 number
Shifts: Shift from dSWS to PW (10 mg/kg i.p.): 37.6 ± 23.8 number

CC(N)Cc1ccccc1 (stereo not drawn) [Amphetamine, amphetamine]
Duration Active wake (1 mg/kg i.p.): 382.4 ± 19.6 min
Duration Deep sleep (1 mg/kg i.p.): 188.0 ± 19.6 min
Duration Intemediate stage (1 mg/kg i.p.): 4.0 ± 19.6 min
Duration Light sleep (1 mg/kg i.p.): 242.7 ± 19.6 min
Duration Passive wake (1 mg/kg i.p.): 50.0 ± 19.6 min
Duration REM sleep (1 mg/kg i.p.): 88.6 ± 19.6 min
Latency ISWS (1 mg/kg i.p.): 140.6 ± 13.4 min
Latency REM sleep (1 mg/kg i.p.): 208.6 ± 14.4 min
Latency dSWS (1 mg/kg i.p.): 161.7 ± 5.3 min
Shifts: Shift from ISWS to AW (1 mg/kg i.p.): 198.8 ± 50.1 number
Shifts: Shift from ISWS to PW (1 mg/kg i.p.): 64.4 ± 30.5 number
Shifts: Shift from REMS to AW (1 mg/kg i.p.): 66.5 ± 19.1 number
Shifts: Shift from REMS to PW (1 mg/kg i.p.): 5.8 ± 4.8 number
Shifts: Shift from dSWS to AW (1 mg/kg i.p.): 11.7 ± 7.2 number
Shifts: Shift from dSWS to PW (1 mg/kg i.p.): 37.7 ± 30.0 number
Duration Active wake (3 mg/kg i.p.): 441.8 ± 15.7 min
Duration Deep sleep (3 mg/kg i.p.): 207.6 ± 17.7 min
Duration Intemediate stage (3 mg/kg i.p.): 4.0 ± 1.0 min
Duration Light sleep (3 mg/kg i.p.): 187.9 ± 23.9 min
Duration Passive wake (3 mg/kg i.p.): 43.5 ± 4.4 min
Duration REM sleep (3 mg/kg i.p.): 71.4 ± 4.1 min
Latency ISWS (3 mg/kg i.p.): 228.2 ± 25.0 min
Latency REM sleep (3 mg/kg i.p.): 338.6 ± 24.3 min
Latency dSWS (3 mg/kg i.p.): 242.0 ± 19.4 min
Shifts: Shift from ISWS to AW (3 mg/kg i.p.): 178.7 ± 46.6 number
Shifts: Shift from ISWS to PW (3 mg/kg i.p.): 62.4 ± 26.1 number
Shifts: Shift from REMS to AW (3 mg/kg i.p.): 59.3 ± 17.8 number
Shifts: Shift from REMS to PW (3 mg/kg i.p.): 3.3 ± 2.6 number
Shifts: Shift from dSWS to AW (3 mg/kg i.p.): 14.8 ± 7.8 number
Shifts: Shift from dSWS to PW (3 mg/kg i.p.): 26.6 ± 16.8 number
Duration Active wake (10 mg/kg i.p.): 498.7 ± 19.0 min
Duration Deep sleep (10 mg/kg i.p.): 181.2 ± 22.0 min
Duration Intemediate stage (10 mg/kg i.p.): 4.0 ± 1.0 min
Duration Light sleep (10 mg/kg i.p.): 182.0 ± 26.3 min
Duration Passive wake (10 mg/kg i.p.): 35.6 ± 4.7 min
Duration REM sleep (10 mg/kg i.p.): 53.6 ± 5.0 min
Latency ISWS (10 mg/kg i.p.): 284.7 ± 56.1 min
Latency REM sleep (10 mg/kg i.p.): 440.8 ± 57.8 min
Latency dSWS (10 mg/kg i.p.): 367.3 ± 5.5 min
Shifts: Shift from ISWS to AW (10 mg/kg i.p.): 201.7 ± 66.1 number
Shifts: Shift from ISWS to PW (10 mg/kg i.p.): 49.0 ± 25.5 number
Shifts: Shift from REMS to AW (10 mg/kg i.p.): 50.0 ± 16.2 number
Shifts: Shift from REMS to PW (10 mg/kg i.p.): 2.2 ± 1.9 number
Shifts: Shift from dSWS to AW (10 mg/kg i.p.): 9.7 ± 5.9 number
Shifts: Shift from dSWS to PW (10 mg/kg i.p.): 11.6 ± 8.9 number
